Results published in paper PMC6199309, “A therapeutic approach to pantothenate kinase associated neurodegeneration” (Nature Communications, 2018).

Experiments:
[1] = target: T1, ABL1(Y253F)-phosphorylated (Homo sapiens, UniProt P00519, Y253F); experiment: KINOMEscan; assay type: binding; details: read-out: %Ctrl @ 10000nM
T1 construct: purchased DiscoverX KINOMEscan

ABL2 = target: T2, ABL2 (Homo sapiens, UniProt P42684); experiment: KINOMEscan; assay type: binding; details: read-out: %Ctrl @ 10000nM
T2 construct: purchased DiscoverX KINOMEscan
T2 sequence (P42684 whole entry): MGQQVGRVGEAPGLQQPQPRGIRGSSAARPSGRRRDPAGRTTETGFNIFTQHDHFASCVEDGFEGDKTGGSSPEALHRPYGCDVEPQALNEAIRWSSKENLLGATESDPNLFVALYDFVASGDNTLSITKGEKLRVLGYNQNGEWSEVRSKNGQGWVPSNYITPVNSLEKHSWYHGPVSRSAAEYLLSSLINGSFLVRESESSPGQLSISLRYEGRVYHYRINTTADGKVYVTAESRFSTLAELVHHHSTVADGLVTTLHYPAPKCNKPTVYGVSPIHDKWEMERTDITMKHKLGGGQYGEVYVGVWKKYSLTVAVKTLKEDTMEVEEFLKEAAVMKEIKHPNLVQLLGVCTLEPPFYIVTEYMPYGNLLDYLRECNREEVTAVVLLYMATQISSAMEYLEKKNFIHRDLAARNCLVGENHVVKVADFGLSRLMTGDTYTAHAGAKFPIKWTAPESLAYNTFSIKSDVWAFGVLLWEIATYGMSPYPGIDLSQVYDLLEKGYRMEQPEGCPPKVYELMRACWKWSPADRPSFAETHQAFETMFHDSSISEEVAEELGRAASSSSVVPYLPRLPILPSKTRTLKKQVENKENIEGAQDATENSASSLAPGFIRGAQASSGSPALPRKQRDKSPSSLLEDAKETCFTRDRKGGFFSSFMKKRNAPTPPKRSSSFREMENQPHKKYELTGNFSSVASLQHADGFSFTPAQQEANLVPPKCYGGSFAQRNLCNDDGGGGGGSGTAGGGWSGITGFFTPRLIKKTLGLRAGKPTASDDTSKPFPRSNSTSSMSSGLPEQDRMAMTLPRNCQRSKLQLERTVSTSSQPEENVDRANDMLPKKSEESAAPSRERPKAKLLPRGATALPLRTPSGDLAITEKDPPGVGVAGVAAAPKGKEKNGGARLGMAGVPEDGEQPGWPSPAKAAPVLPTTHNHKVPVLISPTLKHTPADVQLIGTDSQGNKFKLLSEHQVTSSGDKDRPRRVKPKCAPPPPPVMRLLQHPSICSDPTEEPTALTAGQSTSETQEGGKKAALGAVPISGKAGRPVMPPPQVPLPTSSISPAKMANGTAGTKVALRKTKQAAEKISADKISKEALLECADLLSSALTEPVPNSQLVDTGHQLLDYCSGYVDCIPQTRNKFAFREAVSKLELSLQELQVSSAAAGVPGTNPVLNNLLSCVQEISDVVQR

BIKE = target: T3, BIKE (Homo sapiens, UniProt Q9NSY1); experiment: KINOMEscan; assay type: binding; details: read-out: %Ctrl @ 10000nM
T3 construct: purchased DiscoverX KINOMEscan
T3 sequence (Q9NSY1 whole entry): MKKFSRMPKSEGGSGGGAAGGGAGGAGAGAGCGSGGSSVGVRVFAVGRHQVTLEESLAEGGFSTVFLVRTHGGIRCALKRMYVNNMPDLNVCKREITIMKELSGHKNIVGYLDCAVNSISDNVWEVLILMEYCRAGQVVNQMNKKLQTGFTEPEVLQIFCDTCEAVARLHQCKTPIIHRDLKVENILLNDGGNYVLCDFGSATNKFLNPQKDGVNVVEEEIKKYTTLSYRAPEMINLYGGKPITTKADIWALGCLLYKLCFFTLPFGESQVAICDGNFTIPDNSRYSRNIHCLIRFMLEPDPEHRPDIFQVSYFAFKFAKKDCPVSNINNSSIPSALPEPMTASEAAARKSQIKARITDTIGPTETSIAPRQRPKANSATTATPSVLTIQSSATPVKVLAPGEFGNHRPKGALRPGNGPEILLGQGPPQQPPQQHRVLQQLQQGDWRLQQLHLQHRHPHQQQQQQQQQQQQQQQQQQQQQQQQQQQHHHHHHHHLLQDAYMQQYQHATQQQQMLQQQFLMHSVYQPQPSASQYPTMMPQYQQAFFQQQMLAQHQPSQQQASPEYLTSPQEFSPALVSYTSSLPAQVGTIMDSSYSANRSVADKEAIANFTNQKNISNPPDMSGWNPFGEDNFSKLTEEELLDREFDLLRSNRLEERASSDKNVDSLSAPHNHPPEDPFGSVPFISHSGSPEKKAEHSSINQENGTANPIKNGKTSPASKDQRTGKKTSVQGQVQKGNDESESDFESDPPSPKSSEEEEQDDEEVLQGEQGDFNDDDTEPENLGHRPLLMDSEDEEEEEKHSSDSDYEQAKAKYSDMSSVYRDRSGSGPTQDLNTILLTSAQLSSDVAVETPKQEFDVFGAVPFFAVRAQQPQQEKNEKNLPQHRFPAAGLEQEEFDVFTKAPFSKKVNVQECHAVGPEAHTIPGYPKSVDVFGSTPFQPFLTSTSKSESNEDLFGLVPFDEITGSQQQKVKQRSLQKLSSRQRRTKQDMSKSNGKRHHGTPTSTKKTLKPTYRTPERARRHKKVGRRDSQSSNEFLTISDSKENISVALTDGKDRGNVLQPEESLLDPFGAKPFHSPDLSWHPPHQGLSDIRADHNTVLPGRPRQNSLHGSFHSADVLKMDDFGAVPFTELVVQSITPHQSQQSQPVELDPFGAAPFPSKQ

CAMKK2 = target: T4, CAMKK2 (Homo sapiens, UniProt Q96RR4); experiment: KINOMEscan; assay type: binding; details: read-out: %Ctrl @ 10000nM
T4 construct: purchased DiscoverX KINOMEscan
T4 sequence (Q96RR4 whole entry): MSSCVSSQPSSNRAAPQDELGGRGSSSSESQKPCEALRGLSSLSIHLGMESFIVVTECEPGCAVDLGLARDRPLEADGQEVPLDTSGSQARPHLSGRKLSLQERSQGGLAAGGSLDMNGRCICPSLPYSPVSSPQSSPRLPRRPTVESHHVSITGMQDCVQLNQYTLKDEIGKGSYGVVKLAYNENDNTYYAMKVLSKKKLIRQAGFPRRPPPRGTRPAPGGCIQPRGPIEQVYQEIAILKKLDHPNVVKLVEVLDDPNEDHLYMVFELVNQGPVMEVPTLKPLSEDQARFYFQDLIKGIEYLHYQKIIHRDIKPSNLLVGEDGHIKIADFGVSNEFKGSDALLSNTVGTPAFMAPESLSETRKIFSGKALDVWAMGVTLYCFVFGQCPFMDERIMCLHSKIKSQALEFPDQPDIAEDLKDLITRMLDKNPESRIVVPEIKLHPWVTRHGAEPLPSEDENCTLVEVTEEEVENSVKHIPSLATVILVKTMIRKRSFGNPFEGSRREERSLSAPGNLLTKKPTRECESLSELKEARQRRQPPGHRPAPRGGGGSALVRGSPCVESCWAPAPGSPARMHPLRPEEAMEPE

CDC2L1 = target: T5, CDC2L1 (Homo sapiens, UniProt P21127); experiment: KINOMEscan; assay type: binding; details: read-out: %Ctrl @ 10000nM
T5 construct: purchased DiscoverX KINOMEscan

CDK5 = target: T6, CDK5 (Homo sapiens, UniProt Q00535); experiment: KINOMEscan; assay type: binding; details: read-out: %Ctrl @ 10000nM
T6 construct: purchased DiscoverX KINOMEscan

DMPK = target: T7, DMPK (Homo sapiens, UniProt Q09013); experiment: KINOMEscan; assay type: binding; details: read-out: %Ctrl @ 10000nM
T7 construct: purchased DiscoverX KINOMEscan

EGFR(L861Q) = target: T8, EGFR(L861Q) (Homo sapiens, UniProt P00533, L861Q); experiment: KINOMEscan; assay type: binding; details: read-out: %Ctrl @ 10000nM
T8 construct: purchased DiscoverX KINOMEscan

EPHA3 = target: T9, EPHA3 (Homo sapiens, UniProt P29320); experiment: KINOMEscan; assay type: binding; details: read-out: %Ctrl @ 10000nM
T9 construct: purchased DiscoverX KINOMEscan

EPHA6 = target: T10, EPHA6 (Homo sapiens, UniProt Q9UF33); experiment: KINOMEscan; assay type: binding; details: read-out: %Ctrl @ 10000nM
T10 construct: purchased DiscoverX KINOMEscan

EPHA7 = target: T11, EPHA7 (Homo sapiens, UniProt Q15375); experiment: KINOMEscan; assay type: binding; details: read-out: %Ctrl @ 10000nM
T11 construct: purchased DiscoverX KINOMEscan

EPHA8 = target: T12, EPHA8 (Homo sapiens, UniProt P29322); experiment: KINOMEscan; assay type: binding; details: read-out: %Ctrl @ 10000nM
T12 construct: purchased DiscoverX KINOMEscan

ERK5 = target: T13, ERK5 (Homo sapiens, UniProt Q13164); experiment: KINOMEscan; assay type: binding; details: read-out: %Ctrl @ 10000nM
T13 construct: purchased DiscoverX KINOMEscan

ERN1 = target: T14, ERN1 (Homo sapiens, UniProt O75460); experiment: KINOMEscan; assay type: binding; details: read-out: %Ctrl @ 10000nM
T14 construct: purchased DiscoverX KINOMEscan
T14 sequence (O75460 19-977): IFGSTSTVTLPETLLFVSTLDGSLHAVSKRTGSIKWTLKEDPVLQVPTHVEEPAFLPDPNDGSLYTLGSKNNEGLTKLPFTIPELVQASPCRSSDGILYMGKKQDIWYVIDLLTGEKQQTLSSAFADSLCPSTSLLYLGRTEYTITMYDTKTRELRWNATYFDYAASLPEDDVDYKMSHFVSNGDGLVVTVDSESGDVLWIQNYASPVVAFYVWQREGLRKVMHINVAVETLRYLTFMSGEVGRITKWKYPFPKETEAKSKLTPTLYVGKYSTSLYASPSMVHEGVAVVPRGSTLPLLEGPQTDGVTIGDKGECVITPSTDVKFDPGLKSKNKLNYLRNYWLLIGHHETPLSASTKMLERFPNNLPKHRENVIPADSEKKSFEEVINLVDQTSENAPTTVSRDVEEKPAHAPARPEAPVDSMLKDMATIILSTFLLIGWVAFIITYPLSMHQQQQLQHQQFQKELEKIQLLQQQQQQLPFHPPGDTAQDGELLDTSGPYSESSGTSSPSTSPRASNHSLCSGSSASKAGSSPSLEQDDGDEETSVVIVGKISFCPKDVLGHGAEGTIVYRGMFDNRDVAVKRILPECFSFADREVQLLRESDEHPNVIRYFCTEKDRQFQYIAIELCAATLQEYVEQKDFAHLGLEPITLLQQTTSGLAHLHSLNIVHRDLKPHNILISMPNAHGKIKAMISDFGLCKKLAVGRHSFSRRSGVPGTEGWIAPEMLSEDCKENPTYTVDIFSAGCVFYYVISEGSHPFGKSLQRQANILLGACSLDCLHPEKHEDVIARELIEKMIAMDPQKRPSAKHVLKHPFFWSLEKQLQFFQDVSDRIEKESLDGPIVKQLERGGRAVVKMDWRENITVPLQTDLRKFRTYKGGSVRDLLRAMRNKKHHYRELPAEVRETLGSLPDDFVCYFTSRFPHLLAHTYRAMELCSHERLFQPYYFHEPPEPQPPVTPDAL

FGFR3 = target: T15, FGFR3 (Homo sapiens, UniProt P22607); experiment: KINOMEscan; assay type: binding; details: read-out: %Ctrl @ 10000nM
T15 construct: purchased DiscoverX KINOMEscan

HIPK1 = target: T16, HIPK1 (Homo sapiens, UniProt Q86Z02); experiment: KINOMEscan; assay type: binding; details: read-out: %Ctrl @ 10000nM
T16 construct: purchased DiscoverX KINOMEscan

ICK = target: T17, ICK (Homo sapiens, UniProt Q9UPZ9); experiment: KINOMEscan; assay type: binding; details: read-out: %Ctrl @ 10000nM
T17 construct: purchased DiscoverX KINOMEscan

[2] = target: T18, JAK2(JH1domain-catalytic) (Homo sapiens, UniProt O60674); experiment: KINOMEscan; assay type: binding; details: read-out: %Ctrl @ 10000nM
T18 construct: JAK2(JH1domain-catalytic); purchased DiscoverX KINOMEscan

KIT(V559D,V654A) = target: T19, KIT(V559D,V654A) (Homo sapiens, UniProt P10721, V559D/V654A); experiment: KINOMEscan; assay type: binding; details: read-out: %Ctrl @ 10000nM
T19 construct: purchased DiscoverX KINOMEscan

KIT-autoinhibited = target: T20, KIT-autoinhibited (Homo sapiens, UniProt P10721); experiment: KINOMEscan; assay type: binding; details: read-out: %Ctrl @ 10000nM
T20 construct: purchased DiscoverX KINOMEscan

LIMK2 = target: T21, LIMK2 (Homo sapiens, UniProt P53671); experiment: KINOMEscan; assay type: binding; details: read-out: %Ctrl @ 10000nM
T21 construct: purchased DiscoverX KINOMEscan

MAP3K15 = target: T22, MAP3K15 (Homo sapiens, UniProt Q6ZN16); experiment: KINOMEscan; assay type: binding; details: read-out: %Ctrl @ 10000nM
T22 construct: purchased DiscoverX KINOMEscan

MEK1 = target: T23, MEK1 (Homo sapiens, UniProt Q02750); experiment: KINOMEscan; assay type: binding; details: read-out: %Ctrl @ 10000nM
T23 construct: purchased DiscoverX KINOMEscan
T23 sequence (Q02750 whole entry): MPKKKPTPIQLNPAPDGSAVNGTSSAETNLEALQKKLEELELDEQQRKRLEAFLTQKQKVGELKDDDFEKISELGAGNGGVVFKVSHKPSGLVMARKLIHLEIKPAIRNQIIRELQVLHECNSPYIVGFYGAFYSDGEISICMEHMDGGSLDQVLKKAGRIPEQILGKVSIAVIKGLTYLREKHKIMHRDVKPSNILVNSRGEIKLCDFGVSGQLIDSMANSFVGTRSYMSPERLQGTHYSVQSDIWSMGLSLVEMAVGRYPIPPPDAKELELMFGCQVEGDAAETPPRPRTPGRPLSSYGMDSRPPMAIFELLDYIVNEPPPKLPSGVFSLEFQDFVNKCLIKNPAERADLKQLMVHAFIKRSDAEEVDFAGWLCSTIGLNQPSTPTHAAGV

NIM1 = target: T24, NIM1 (Homo sapiens, UniProt Q8IY84); experiment: KINOMEscan; assay type: binding; details: read-out: %Ctrl @ 10000nM
T24 construct: purchased DiscoverX KINOMEscan

OSR1 = target: T25, OSR1 (Homo sapiens, UniProt O95747); experiment: KINOMEscan; assay type: binding; details: read-out: %Ctrl @ 10000nM
T25 construct: purchased DiscoverX KINOMEscan

PIK3CA = target: T26, PIK3CA (Homo sapiens, UniProt P42336); experiment: KINOMEscan; assay type: binding; details: read-out: %Ctrl @ 10000nM
T26 construct: purchased DiscoverX KINOMEscan

PIP5K1A = target: T27, PIP5K1A (Homo sapiens, UniProt Q99755); experiment: KINOMEscan; assay type: binding; details: read-out: %Ctrl @ 10000nM
T27 construct: purchased DiscoverX KINOMEscan

PKN2 = target: T28, PKN2 (Homo sapiens, UniProt Q16513); experiment: KINOMEscan; assay type: binding; details: read-out: %Ctrl @ 10000nM
T28 construct: purchased DiscoverX KINOMEscan

RIPK2 = target: T29, RIPK2 (Homo sapiens, UniProt O43353); experiment: KINOMEscan; assay type: binding; details: read-out: %Ctrl @ 10000nM
T29 construct: purchased DiscoverX KINOMEscan

SRPK1 = target: T30, SRPK1 (Homo sapiens, UniProt Q96SB4); experiment: KINOMEscan; assay type: binding; details: read-out: %Ctrl @ 10000nM
T30 construct: purchased DiscoverX KINOMEscan
T30 sequence (Q96SB4 whole entry): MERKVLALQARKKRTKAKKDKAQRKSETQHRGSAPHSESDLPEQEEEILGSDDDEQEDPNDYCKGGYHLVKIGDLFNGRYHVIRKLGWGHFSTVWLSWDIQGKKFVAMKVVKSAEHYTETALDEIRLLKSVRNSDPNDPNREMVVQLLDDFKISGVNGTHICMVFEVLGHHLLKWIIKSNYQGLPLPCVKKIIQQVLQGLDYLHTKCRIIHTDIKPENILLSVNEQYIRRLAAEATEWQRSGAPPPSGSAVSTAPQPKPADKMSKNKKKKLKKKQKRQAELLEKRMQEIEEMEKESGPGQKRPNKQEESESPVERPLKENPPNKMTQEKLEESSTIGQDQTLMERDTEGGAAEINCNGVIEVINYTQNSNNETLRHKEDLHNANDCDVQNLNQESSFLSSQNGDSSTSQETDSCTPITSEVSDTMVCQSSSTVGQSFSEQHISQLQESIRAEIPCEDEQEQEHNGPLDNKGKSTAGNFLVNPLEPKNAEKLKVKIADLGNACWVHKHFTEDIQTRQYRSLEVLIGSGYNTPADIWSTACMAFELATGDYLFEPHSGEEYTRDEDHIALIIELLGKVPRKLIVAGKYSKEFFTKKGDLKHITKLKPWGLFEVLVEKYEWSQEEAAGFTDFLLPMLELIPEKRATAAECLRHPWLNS

TYRO3 = target: T31, TYRO3 (Homo sapiens, UniProt Q06418); experiment: KINOMEscan; assay type: binding; details: read-out: %Ctrl @ 10000nM
T31 construct: DNA label for qPCR (T7 phage fusion or DNA tag); purchased DiscoverX scanMAX; host or cells: E. coli BL21-derived (T7 phage) or HEK-293

WNK3 = target: T32, WNK3 (Homo sapiens, UniProt Q9BYP7); experiment: KINOMEscan; assay type: binding; details: read-out: %Ctrl @ 10000nM
T32 construct: DNA label for qPCR (T7 phage fusion or DNA tag); purchased DiscoverX scanMAX; host or cells: E. coli BL21-derived (T7 phage) or HEK-293

[3] = PZ-2891 levels in plasma, liver and brain tissue; assay type: in vivo, mouse; details: 225 ppm PZ-2891 in diet, 4 weeks
Procedure: Plasma (20 μl) was added to 100 μl acetonitrile containing 0.6 μM warfarin to a final concentration of 0.5 μM. The samples were incubated on ice for 30 min. Samples were spun at 3500×g for 10 min to pellet debris, and the supernatant was transferred to a glass vial. […] Tissue was homogenized in 2 ml of 80% methanol containing 0.1 μM warfarin, and incubated at −80 °C for 4 h. Samples were spun at 3500×g for 10 min to pellet debris, supernatant was transferred to a glass tube and dried down using a Savant SPD1010 Speed-Vac (Thermo Scientific) overnight. Samples were resuspended in 400 μl of 80% acetonitrile to a final concentration of 0.5 μM and transferred to a glass vial.
Samples (5 μl) were injected onto an XSelect® HSS C18, 2.5 μm, 3.0 × 150 mm column (Waters) using a flow rate of 0.25 ml/min. Solvent A was 0.1% formic acid in water, and Solvent B was acetonitrile + 0.1% formic acid. The HPLC program was the following: starting solvent mixture of 50% B, 0–0.5 min isocratic with 50% B; 0.5–1.5 min linear gradient to 95% B; 1.5–20 min isocratic with 95% B; 20–21 min linear gradient to 50% B; 21–25 min isocratic with 50% B. The QTrap 4500 was operated in the positive mode, and the ion source parameters were: ion spray voltage, 5500 V; curtain gas, 30 psi; temperature, 450 °C; collision gas, medium; ion source gas 1, 30 psi; and ion source gas 2, 40 psi. […]
Supplementary Fig. 11. […]. […]

CC(C)c1ccc(CC(=O)N2CCN(c3ccc(C#N)nn3)CC2)cc1 [PZ-2891, 6-(4-(2-(4-isopropylphenyl)acetyl)piperazin-1-yl)pyridazine-3-carbonitrile]
remaining binding at 10 µM [1]: 82%
remaining binding at 10 µM (ABL2): 96%
remaining binding at 10 µM (BIKE): 100%
remaining binding at 10 µM (CAMKK2): 87%
remaining binding at 10 µM (CDC2L1): 95%
remaining binding at 10 µM (CDK5): 87%
remaining binding at 10 µM (DMPK): 89%
remaining binding at 10 µM (EGFR(L861Q)): 100%
remaining binding at 10 µM (EPHA3): 65%
remaining binding at 10 µM (EPHA6): 89%
remaining binding at 10 µM (EPHA7): 92%
remaining binding at 10 µM (EPHA8): 95%
remaining binding at 10 µM (ERK5): 93%
remaining binding at 10 µM (ERN1): 82%
remaining binding at 10 µM (FGFR3): 96%
remaining binding at 10 µM (HIPK1): 61%
remaining binding at 10 µM (ICK): 81%
remaining binding at 10 µM [2]: 88%
remaining binding at 10 µM (KIT(V559D,V654A)): 73%
remaining binding at 10 µM (KIT-autoinhibited): 81%
remaining binding at 10 µM (LIMK2): 95%
remaining binding at 10 µM (MAP3K15): 92%
remaining binding at 10 µM (MEK1): 76%
remaining binding at 10 µM (NIM1): 83%
remaining binding at 10 µM (OSR1): 87%
remaining binding at 10 µM (PIK3CA): 95%
remaining binding at 10 µM (PIP5K1A): 86%
remaining binding at 10 µM (PKN2): 94%
remaining binding at 10 µM (RIPK2): 89%
remaining binding at 10 µM (SRPK1): 100%
remaining binding at 10 µM (TYRO3): 100%
remaining binding at 10 µM (WNK3): 100%
PZ-2891 levels in tissues [3]: presence of drug in liver and brain
